Like-named read-outs stand apart in the source and are kept apart here.

Data set [1] in a line: Serum levels of bixin and norbixin in human volunteers on bixin supplementation (Example 1). Type of data set: in vivo. The conditions noted are these: human test group, 20 milligrams bixin daily as two 10 mg capsules, during supplementation. The text has this: (§1) Two groups of human volunteers (3 individuals in the test group and 5 in the control group) were exposed to high oxidative stress conditions by breathing contaminated air of a high ozone level and a high concentration of smoke over a period of four to five days for one half hour per day. Both groups were given the same diets. Namely, they consumed their normal daily diets but avoided foods rich in carotenoids, particularly foods containing annatto (as a colorant), from two weeks before the exposure until two weeks after the exposure.
During the period of bixin supplementation, the serum level of bixin and norbixin was zero in the control group, while the serum levels of bixin and norbixin in the individuals of the test group reached levels of 12 and 60 micrograms/liter, respectively.

The subject of data set [2] is thiobarbituric acid-reactive substances. Nature of the data set: Oxidative stress load in the blood, modified TBAR test and free radical content (Example 1). Type of data set: in vivo, human. The conditions noted are these: humans exposed to high ozone and smoke, 20 mg bixin daily.
From the text: as §1

Data set [3] deals with WAZ-2T(-SA) mammary tumor cell line. Nature of the data set: Dietary bixin in mammary tumor development (Example 2). Type of data set: in vivo, BALB/c mice. To be noted: for final tumor weight: 50 days after inoculation, control 1.1 grams; for tumor latency (days post inoculation when tumors first palpable): control 30 days. As for the experimental part:
(§2) Female BALB/c mice and the WAZ-2T(-SA) mammary tumor cell line were used to determine the efficacy of dietary bixin in inhibiting mammary tumor development. Six mice per treatment were fed a semi synthetic AlN-93M diet containing 0, 0.006 or 0.06% bixin. After 14 days, all mice were inoculated with 2500 tumor cells (a cell load which typically produces a 65% tumor incidence in untreated controls). Tumor growth was measured daily for 50 days, at which time blood, liver, spleen, and tumors were removed and evaluated. […] Final tumor weight was 0.3 grams at 0.06% dietary bixin, 0.7 grams at 0.006% and 1.1 grams for the control without dietary bixin. Tumor latency (number of days post inoculation when mammary tumors were first palpable) was 45 days at 0.06% dietary bixin level, 38 days at 0.006%, and 30 days for the control. Results were determined to be statistically significant at the P<0.05 level. […] It may thus be concluded that the dietary bixin protected the mice from mammary tumor development by triggering genes of immune related systems rather than by an antioxidant action at the cellular level.

In data set [4] the test system is PIM-1, p-53, BAX, and BCL-2. Briefly: mRNA expression in isolated splenocytes cultured with concanavalin-A (Example 2). The format is cell-based, BALB/c mice. To be noted: splenocytes of mice fed dietary bixin. The protocol:
as §2

The nature of data set [5]: Acceptable daily intake (JECFA, 1982). The arrangement: species or system human. The conditions noted are these: worked out from 0.065 mg/day/kg. The text has this: Bixin and its hydrolyzed form, norbixin, are used as coloring agents for human consumption, mainly in cheese (see Collins, “The role of annatto in food colouring,” Food Ingredients and Processing International, 23-27 (February 1992)). For some coloring applications, methylbixin has been commercially prepared by esterification of the […] of the bixin molecule (Zechmelster, et al., “A stereochernical study of methylbixin,” J. Am. Chem. Soc., 66:322330 (1944); Jondiko, et al., “Terpenoids and an apocarotenoid from seeds of B. orellana,” Phytochemistry, 28:3159-3162 (1989)). As a natural color additive to foods, particularly cheeses, bixin is typically added at concentrations of about 1 to 25 mg bixin per kg of food, although higher quantities may be used for some cheeses. Estimates of average daily intake of bixin compounds (usually bixin and norbixin) are of the order of 0.3 to 3 mg per day per person, although some studies report higher values, through the consumption of products such as cheeses, cake decoration, breakfast cereals, ice cream, snacks, margarine, and other foods in which bixin extract is added during food manufacture to provide color. The maximum ADI (acceptable daily intake) established by the Joint FAO/WHO Committee on Food Additives (JECFA, 1982) is 0.065 mg/day/kg body weight, expressed as bixin. […]

For data set [6] the following is noted: JECFA 1982, expressed as bixin; cited from earlier work.
The conditions of data set [7]: after human ingestion; cited from earlier work.
In data set [8] the test system is C3H- 1 O-T 1-2 cells. The conditions noted are these: same level as lutein and canthaxanthin, surpassed only by alpha-tocopherol; cited from earlier work.
Data set [9] relates to formation of cancer cells. The conditions noted are these: carcinogenesis with methylcholantrene; cited from earlier work.
For data set [10] the following is noted: rats, oral administration, gamma-radiation; cited from earlier work.
The test system of data set [11] is Connexin-43. The conditions noted are these: cited from earlier work.
For data set [12], the system named is lipoxidase. The conditions noted are these: cited from earlier work; for antioxidant activity and lipoxidase inhibition: in vitro, isolated cell or enzyme systems.
In data set [13] the test system is xenobiotic enzymes. To be noted: rat, dietary supplementation; cited from earlier work.
The test system of data set [14] is DNA. To be noted: cells exposed to radiation, metal ions and peroxides, cisplatin; cited from earlier work.
In data set [15] the test system is tumor cells. The conditions noted are these: e.g. human leukemia U937; cited from earlier work.
The test system of data set [16] is caspase-3. The conditions noted are these: HL-60 cells; cited from earlier work.
Data set [17] has as its system PPARgamma and PPARalpha. To be noted: 3T3-L1 adipocytes and HepG2 hepatocytes, in vitro; cited from earlier work.
The test system of data set [18] is esterification of retinol. To be noted: cited from earlier work.
Data set [19] deals with NIH3T3 cells. To be noted: in combination with lovastatin, without the cytotoxicity of lovastatin alone; cited from earlier work.
For data set [20] the following is noted: cited from earlier work.
The target in data set [21] is aldose reductase (Homo sapiens, UniProt P15121). The conditions noted are these: found in annatto leaf extract; cited from earlier work.
The conditions of data set [22]: 100 milligrams per day for 35 days; cited from earlier work.
Data set [23] concerns hippocampal neuronal cells. The conditions noted are these: by suppressing activation of c-Src kinase; cited from earlier work.
For data set [24] the following is noted: dietary, pregnant rats; cited from earlier work.
The conditions of data set [25]: rats, cited from earlier work.
For data set [26] the following is noted: mice, 66 mg norbixin per kilogram body weight; cited from earlier work.
For data set [27] the following is noted: mice and rats on high dietary doses; cited from earlier work.

Regarding `COC(=O)/C=C/C(C)=C\C=C\C(C)=C\C=C\C=C(C)\C=C\C=C(C)\C=C\C(=O)O` [bixin], the “serum level of bixin” value in data set [1] is 12 micrograms/liter. For the same compound, the “oxidative stress level of the blood (modified TBAR test)” value in data set [2] (control group high) is reported as “remained normal”. In data set [2] (same relation as TBAR (control high, test normal)), the “free radical content of the blood” value is on record as “same relation was found”. In addition, in data set [3] (0.006% dietary bixin), the final tumor weight came out at 0.7 grams and the “tumor latency (days post inoculation when tumors first palpable)” value is 38 days. Also, in [3] (0.06% dietary bixin), the final tumor weight was 0.3 grams and the “tumor latency (days post inoculation when tumors first palpable)” value was 45 days. Further, in [3] (0.06% dietary bixin, versus 0.006% and control), the “mammary tumor incidence and tumor growth rate” value is listed as “lowest”. Further, the “mRNA expression levels of PIM-1, p-53, BAX, and BCL-2” value in [4] was “dose dependent effects”. In data set [5], the “maximum ADI for average human weight of 60 kg” value came to 3.9 mg per day. Besides, the “maximum ADI (acceptable daily intake)” value in [6] was 0.065 mg/day/kg body weight. Also, the “absorption into the blood stream” value in [7] is on record as “readily absorbed”. Moreover, the “inhibition of lipid peroxidation” value in data set [8] is “potent inhibitor”. In data set [9], the “prevention of formation of cancer cells” value is “did not prevent”. The “level of lipid peroxides in serum and liver” value in [10] was “significantly reduced”. Also, the Connexin-43 gene expression result in [11] was “does not up-regulate”. Further, in data set [12] (Canfield et al.), the “lipoxydase inhibition, modulation of lipid hydroperoxide formation” value is recorded as “lipoxydase inhibitor”. Further, the “antioxidant activity and lipoxidase inhibition” value in data set [12] was “strong antioxidant activity and lipoxidase inhibition”. In data set [13], the “effect on xenobiotic enzymes of lung and kidney” value is “induction effect”. The “DNA protection in vitro” value in [14] is listed as “protects DNA”.

For the compound `COC(=O)/C=C/C(C)=C/C=C/C(C)=C/C=C/C=C(C)/C=C/C=C(C)/C=C/C(=O)OC` [methylbixin], in [12], the “antioxidant activity and lipoxidase inhibition” value is “strong antioxidant activity and lipoxidase inhibition”.

Take `CC(C)=CCC/C(C)=C/CC/C(C)=C/CC/C(C)=C/CO` [geranylgeraniol]: in data set [15], the induction of apoptosis result is listed as “very potent inducer of apoptosis”. The “activation of caspase-3” value in data set [16] is on record as “selective activation”. Further, in data set [17], the “lipid metabolic target genes” value was “upregulates”. The “esterification of retinol into inactive retinyl esters” value in [18] was “inhibits esterification”. Further, in data set [19], the “aberrant (oncogenic) signaling between cells” value is “selectively inhibits”.

Turning to vitamin E, the “urinary albumin excretion rate” value in data set [20] (humans with type 2 diabetes) is on record as “significantly reduced”. The “plasma levels of C-reactive molecules” value in data set [20] (patients with diabetes) was “decreased”.

As for isoscutellarein, in [21], the aldose reductase inhibition entry is “aldose reductase inhibitor”.

In the case of tocotrienol, the “reduction of total cholesterol levels” value in data set [22] was 20%. Further, the “protection from glutamate-induced death” value in [23] is recorded as “protects”. Moreover, the “bioavailability to maternal and fetal brains” value in data set [24] is “bioavailable”.

With `CC(/C=C/C=C(C)/C=C/C(=O)O)=C\C=C\C=C(C)\C=C\C=C(C)\C=C\C(=O)O` (stereo in doubt) [norbixin], the “serum level of norbixin” value in [1] is reported as 60 micrograms/liter. The hyperglycemia induced in data set [25] (8.5 mg dietary norbixin/kg body weight) was 27%; in data set [25] (74 mg/kg), 53%. Besides, the hypoglycemia induced entry in [26] was “up to 22%”. The “DNA breakage in liver and kidney” value in [27] was “no detectable DNA breakage”. In data set [14], the “DNA protection in vitro” value is given as “protects DNA”.
